According to article PMC9182104 (Molecules, 2022):
Several values for one entry are separate records, joined by “and”; a condition that tells them apart may be missing. Identical values can stand only once. Like-named read-outs stand apart in the source and are kept apart here.

How the values were obtained:
PDE5A = PDE5A (Homo sapiens, UniProt O76074); experiment: Enzymatic assay of PDE5A (3H-cGMP substrate); type: biochemical; conditions: for inhibition at 0.1 µM / inhibition at 0.5 µM: 0.25 h; for IC50: PDE5, mean ± SD of three independent experiments
[1] = Rat liver microsomal stability; type: in vitro ADME; conditions: rat liver microsomes, compound 0.5 μM; read-out: T1/2 in RLM
[2] = cited from earlier work
[3] = tested on: fibrosis markers α-SMA and FN; design: method as in earlier work; conditions: rat, bleomycin-induced pulmonary fibrosis; cited from earlier work
[4] = PDE5, compound at 0.1 μM, read-out: Inhibition Ratio (%) 0.1 μM
[5] = PDE5, compound at 0.5 μM, read-out: Inhibition Ratio (%) 0.5 μM

SMILES | inhibition at 0.1 µM (PDE5A; [4]) [%] | inhibition at 0.5 µM (PDE5A; [5]) [%] | IC50 (PDE5A) | further results
C[C@H]1CCCN1c1nc(N(CCO)CCO)nc2c(N3CCC[C@@H]3C)nc(N(CCO)CCO)nc12 [(R)-4f, 2,2′,2″,2‴-((4,8-bis((S)-2-methylpyrrolidin-1-yl)pyrimido[5,4-d]pyrimidine-2,6-diyl)bis(azanetriyl))tetrakis(ethan-1-ol)] | – | – | – | Inhibition Ratio (%) 0.1 μM (PDE5A; PDE5, compound at 0.1 μM): 27%; Inhibition Ratio (%) 0.5 μM (PDE5A; PDE5, compound at 0.5 μM): 44%
CC1CCCN1c1nc(N(CCO)CCO)nc2c(N3CCCC3C)nc(N(CCO)CCO)nc12 (stereo not shown) [4f, 2,2′,2″,2‴-((4,8-bis(2-methylpyrrolidin-1-yl)pyrimido[5,4-d]pyrimidine-2,6-diyl)bis(azanetriyl))tetrakis(ethan-1-ol)] | 14 | 60 | 478 ± 3 nM | –
OCCN(CCO)c1nc(N2CCSCC2)c2nc(N(CCO)CCO)nc(N3CCSCC3)c2n1 [4b, 2,2′,2″,2‴-((4,8-dithiomorpholinopyrimido[5,4-d]pyrimidine-2,6-diyl)bis(azanetriyl))tetrakis(ethan-1-ol)] | 53 | 75 | 64 nM and 113 nM | half-life at 0.5 μM [1]: 7 min
OCC1CCCN(c2nc(N3CCC(F)CC3)c3nc(N4CCCC(CO)C4)nc(N4CCC(F)CC4)c3n2)C1 (stereo not shown) [6b, ((4,8-bis(4-fluoropiperidin-1-yl)pyrimido[5,4-d]pyrimidine-2,6-diyl)bis(piperidine-1,3-diyl))dimethanol] | 0 | 7 | – | –
OCCN(CCO)c1nc(N2CCC(F)(F)C2)c2nc(N(CCO)CCO)nc(N3CCC(F)(F)C3)c2n1 [4i, 2,2′,2″,2‴-((4,8-bis(3,3-difluoropyrrolidin-1-yl)pyrimido[5,4-d]pyrimidine-2,6-diyl)bis(azanetriyl))tetrakis(ethan-1-ol)] | 24 | 61 | 353 ± 57 nM | –
OC[C@H]1CCCN(c2nc(N3CCSC3)c3nc(N4CCC[C@H](CO)C4)nc(N4CCSC4)c3n2)C1 [(S)-5b, ((3S,3′S)-(4,8-di(thiazolidin-3-yl)pyrimido[5,4-d]pyrimidine-2,6-diyl)bis(piperidine-1,3-diyl))dimethanol] | 13 | 34 | – | –
O[C@@H]1CCCN(c2nc(N3CCC(F)CC3)c3nc(N4CCC[C@@H](O)C4)nc(N4CCC(F)CC4)c3n2)C1 [(R)-6a, (3R,3′R)-1,1′-(4,8-bis(4-fluoropiperidin-1-yl)pyrimido[5,4-d]pyrimidine-2,6-diyl)bis(piperidin-3-ol)] | 8 | 36 | – | –
OC1CCCN(c2nc(N3CCC(F)CC3)c3nc(N4CCCC(O)C4)nc(N4CCC(F)CC4)c3n2)C1 (stereo not shown) [6a, 1,1′-(4,8-bis(4-fluoropiperidin-1-yl)pyrimido[5,4-d]pyrimidine-2,6-diyl)bis(piperidin-3-ol)] | 7 | 48 | – | –
OCCN(CCO)c1nc(N2CCCCC2)c2nc(N(CCO)CCO)nc(N3CCCCC3)c2n1 [DIP, Dipyridamole, reference compound] | – | – | – | inhibition at 0.1 µM (PDE5A; read-out: Inhibition Ratio (%) 0.1 μM, PDE5, compound at 0.1 μM): 17%; inhibition at 0.5 µM (PDE5A; read-out: Inhibition Ratio (%) 0.5 μM, PDE5, compound at 0.5 μM): 84%; solubility in water [2]: practically insoluble in water; levels of fibrosis markers α-SMA and FN [3]: significantly decreased
OCCN(CCO)c1nc(N2CCSC2)c2nc(N(CCO)CCO)nc(N3CCSCC3)c2n1 [9a, 2,2′,2″,2‴-((4-(thiazolidin-3-yl)-8-thiomorpholinopyrimido[5,4-d]pyrimidine-2,6-diyl)bis(azanetriyl))tetrakis(ethan-1-ol)] | 45 | 91 | 100 ± 1 nM | half-life at 0.5 μM [1]: 4 min
OCC1CCCN(c2nc(N3CCSC3)c3nc(N4CCCC(CO)C4)nc(N4CCSC4)c3n2)C1 (stereo not shown) [5b, ((4,8-di(thiazolidin-3-yl)pyrimido[5,4-d]pyrimidine-2,6-diyl)bis(piperidine-1,3-diyl))dimethanol] | 52 | 79 | 167 ± 41 nM | –
OCCN(CCO)c1nc(N2CCCC2)c2nc(N(CCO)CCO)nc(N3CCCC3)c2n1 [4e, 2,2′,2″,2‴-((4,8-di(pyrrolidin-1-yl)pyrimido[5,4-d]pyrimidine-2,6-diyl)bis(azanetriyl))tetrakis(ethan-1-ol)] | 7 | < 50 | – | –
OCCN(CCO)c1nc(N2CCSC2)c2nc(N(CCO)CCO)nc(N3CCSC3)c2n1 [4g, 2,2′,2″,2‴-((4,8-di(thiazolidin-3-yl)pyrimido[5,4-d]pyrimidine-2,6-diyl)bis(azanetriyl))tetrakis(ethan-1-ol)] | 60 | 93 | 113 nM and 64 nM | half-life at 0.5 μM [1]: 5 min
OCCN(CCO)c1nc(N2CCC(F)(F)CC2)c2nc(N(CCO)CCO)nc(N3CCC(F)(F)CC3)c2n1 [4d, 2,2′,2″,2‴-((4,8-bis(4,4-difluoropiperidin-1-yl)pyrimido[5,4-d]pyrimidine-2,6-diyl)bis(azanetriyl))tetrakis(ethan-1-ol)] | 41 | 72 | 362 ± 81 nM | half-life at 0.5 μM [1]: 19 min
C[C@H]1CCCN1c1nc(N(CCO)CCO)nc2c(N3CCC[C@@H]3C)nc(N(CCO)CCO)nc12 [(S)-4f, 2,2′,2″,2‴-((4,8-bis((S)-2-methylpyrrolidin-1-yl)pyrimido[5,4-d]pyrimidine-2,6-diyl)bis(azanetriyl))tetrakis(ethan-1-ol)] | 16 | 42 | – | –
OCCN(CCO)c1nc(N2CCOCC2)c2nc(N(CCO)CCO)nc(N3CCOCC3)c2n1 [4a, 2,2′,2″,2‴-((4,8-dimorpholinopyrimido[5,4-d]pyrimidine-2,6-diyl)bis(azanetriyl))tetrakis(ethan-1-ol)] | 0 | 40 | > 500 nM | –
O[C@H]1CCN(c2nc(N3CCSC3)c3nc(N4CC[C@H](O)C4)nc(N4CCSC4)c3n2)C1 [(S)-5c, (3S,3′S)-1,1′-(4,8-di(thiazolidin-3-yl)pyrimido[5,4-d]pyrimidine-2,6-diyl)bis(pyrrolidin-3-ol)] | 36 | 49 | – | –
OCCN(CCO)c1nc(N2CC[C@H](F)C2)c2nc(N(CCO)CCO)nc(N3CC[C@H](F)C3)c2n1 [(S)-4h, 2,2′,2″,2‴-((4,8-bis((S)-3-fluoropyrrolidin-1-yl)pyrimido[5,4-d]pyrimidine-2,6-diyl)bis(azanetriyl))tetrakis(ethan-1-ol)] | 34 | 55 | 332 ± 56 nM | half-life at 0.5 μM [1]: 67 min
OC[C@@H]1CCCN(c2nc(N3CCSC3)c3nc(N4CCC[C@@H](CO)C4)nc(N4CCSC4)c3n2)C1 [(R)-5b, ((3R,3′R)-(4,8-di(thiazolidin-3-yl)pyrimido[5,4-d]pyrimidine-2,6-diyl)bis(piperidine-1,3-diyl))dimethanol] | – | – | 109 ± 20 nM | –
O[C@@H]1CCN(c2nc(N3CCSC3)c3nc(N4CC[C@@H](O)C4)nc(N4CCSC4)c3n2)C1 [(R)-5c, (3R,3′R)-1,1′-(4,8-di(thiazolidin-3-yl)pyrimido[5,4-d]pyrimidine-2,6-diyl)bis(pyrrolidin-3-ol)] | 45 | 74 | 198 ± 45 nM | –
OCCN(CCO)c1nc(N2CC[C@H](F)C2)c2nc(N(CCO)CCO)nc(N3CCSC3)c2n1 [9b, (S)-2,2′,2″,2‴-((4-(3-fluoropyrrolidin-1-yl)-8-(thiazolidin-3-yl)pyrimido[5,4-d]pyrimidine-2,6-diyl)bis(azanetriyl))tetrakis(ethan-1-ol)] | 33 | 81 | 94 ± 9 nM | half-life at 0.5 μM [1]: 10 min
OC1CCN(c2nc(N3CCSC3)c3nc(N4CCC(O)CC4)nc(N4CCSC4)c3n2)CC1 [5a, 1,1′-(4,8-di(thiazolidin-3-yl)pyrimido[5,4-d]pyrimidine-2,6-diyl)bis(piperidin-4-ol)] | 29 | 32 | – | –
OCCN(CCO)c1nc(N2CCC(F)CC2)c2nc(N(CCO)CCO)nc(N3CCC(F)CC3)c2n1 [4c, 2,2′,2″,2‴-((4,8-bis(4-fluoropiperidin-1-yl)pyrimido[5,4-d]pyrimidine-2,6-diyl)bis(azanetriyl))tetrakis(ethan-1-ol)] | 31 | 62 | 343 ± 18 nM | half-life at 0.5 μM [1]: 44 min
OC1CCN(c2nc(N3CCC(F)CC3)c3nc(N4CCC(O)C4)nc(N4CCC(F)CC4)c3n2)C1 (stereo not shown) [6c, 1,1′-(4,8-bis(4-fluoropiperidin-1-yl)pyrimido[5,4-d]pyrimidine-2,6-diyl)bis(pyrrolidin-3-ol)] | 5 | 20 | – | –
OCCN(CCO)c1nc(N2CC[C@@H](F)C2)c2nc(N(CCO)CCO)nc(N3CC[C@@H](F)C3)c2n1 [(R)-4h, 2,2′,2″,2‴-((4,8-bis((R)-3-fluoropyrrolidin-1-yl)pyrimido[5,4-d]pyrimidine-2,6-diyl)bis(azanetriyl))tetrakis(ethan-1-ol)] | 27 | 44 | – | –
